Activity calls are given as the source filed them. The rule behind the calls is not given here.
Tests used:
B16 [1] = experiment: Downregulation of Bcl-2 expression in mouse B16 cells at 9.70 uM measured after 48 hrs by Western blot analysis; format: functional, cell-based; details: dose 9.7 µM
[2] = Inhibition of cell invasion in mouse B16 cells at 9.70 uM measured after 24 hrs by crystal violet staining based analysis relative to control; format: functional
B16 [3] = experiment: Induction of endoplasmic reticulum (ER) stress in mouse B16 cells assessed as effect on CHOP expression at 9.70 uM measured after 48 hrs by Western blot analysis; format: functional, cell-based; details: dose 9.7 µM
B16 [4] = experiment: Anti-melanoma activity against mouse B16 cells xenografted in Kunming mouse model assessed as reduction in tumor volume at 60 mg/kg, IG measured after 5 days; format: functional, organism-based; details: time 5.0 day
B16 [5] = experiment: Antiproliferative activity against mouse B16 cells measured after 48 hrs by MTT assay; format: functional, cell-based; details: B16, 48 h
[6] = Induction of apoptosis in mouse B16 cells at 19.4 uM measured after 48 hrs by annexin-V/PI double staining based flow cytometry analysis relative to control; format: functional
B16 [7] = experiment: Anti-melanoma activity against mouse B16 cells xenografted in Kunming mouse model assessed as increase in caspase 8 expression at 60 mg/kg, IG measured after 27 days by IHC staining based analysis; format: functional, organism-based; details: time 27.0 day
B16 [8] = experiment: Anti-melanoma activity against mouse B16 cells xenografted in Kunming mouse model assessed as inhibition of tumor weight at 60 mg/kg, IG measured every two days for 27 days relative to control; format: functional; set-up: scale not given: the % may be the effect or the level left; details: time 27 day
PC-3 = experiment: Antiproliferative activity against human PC-3 cells at 25 uM measured after 48 hrs by MTT assay; format: functional, cell-based
B16 [9] = experiment: Anti-melanoma activity against mouse B16 cells xenografted in Kunming mouse model assessed as suppression of tumor weight at 60 mg/kg, IG measured every two days for 27 days (reference value: 10.61+/-1.05g); format: functional; details: time 27 day
[10] = Inhibition of cell migration in mouse B16 cells at 9.70 uM measured after 24 hrs by crystal violet staining based analysis relative to control; format: functional
B16 [11] = experiment: Anti-melanoma activity against mouse B16 cells xenografted in Kunming mouse model assessed as decrease in bcl-2 level at 60 mg/kg, IG measured after 27 days by IHC staining based analysis; format: functional, organism-based; details: time 27.0 day
B16 [12] = experiment: Anti-melanoma activity against mouse B16 cells xenografted in Kunming mouse model assessed as reduction in tumor volume at 60 mg/kg, IG measured upto 27 days; format: functional, organism-based; details: time <= 27.0 day
B16 [13] = experiment: Upregulation of […] expression in mouse B16 cells at 9.70 uM measured after 48 hrs by Western blot analysis; format: functional, cell-based; details: dose 9.7 µM
B16 [14] = experiment: Anti-melanoma activity against mouse B16 cells xenografted in Kunming mouse model assessed as increase in bax expression at 60 mg/kg, IG measured after 27 days by IHC staining based analysis; format: functional, organism-based; details: time 27.0 day
B16 [15] = experiment: Anti-melanoma activity against mouse B16 cells xenografted in Kunming mouse model assessed as increase in caspase 3 expression at 60 mg/kg, IG measured after 27 days by IHC staining based analysis; format: functional, organism-based; details: time 27.0 day
[16] = Drug metabolism in mouse plasma assessed as abiraterone Tmax at 20 mg/kg, IG; format: ADME, organism-based; details: in vivo, po
B16 [17] = experiment: Upregulation of caspase 3 expression in mouse B16 cells at 9.70 uM measured after 48 hrs by Western blot analysis; format: functional, cell-based; details: dose 9.7 µM
B16 [18] = experiment: Induction of endoplasmic reticulum (ER) stress in mouse B16 cells assessed as decrease in alix expression at 9.70 uM measured after 48 hrs by Western blot analysis; format: functional, cell-based; details: dose 9.7 µM
[19] = Toxicity in Kunming mouse assessed as effect on body weight at 60 mg/kg, IG measured after 21 days; format: organism-based; details: in vivo, po, 504 h, time 21 day
[20] = Induction of apoptosis in mouse B16 cells assessed as necrosis at 19.4 uM measured after 48 hrs by annexin-V/PI double staining based flow cytometry analysis relative to control; format: functional
DU-145 = experiment: Antiproliferative activity against human DU-145 cells at 25 uM measured after 48 hrs by MTT assay; format: functional, cell-based
B16 [21] = experiment: Induction of endoplasmic reticulum (ER) stress in mouse B16 cells assessed as effect on GRP78 expression at 9.70 uM measured after 48 hrs by Western blot analysis; format: functional, cell-based; details: dose 9.7 µM
B16 [22] = experiment: Anti-melanoma activity against mouse B16 cells xenografted in Kunming mouse model assessed as reduction in tumor volume at 60 mg/kg, IG measured after 7 to 27 days; format: functional, organism-based; details: time 7-27 day
[23] = Inhibition of cell migration in mouse B16 cells at 9.70 uM measured after 48 hrs by scratch-wound healing assay relative to control; format: functional
[24] = Drug metabolism in mouse plasma assessed as abiraterone Cmax at 20 mg/kg, IG; format: ADME, organism-based; details: in vivo, po
B16 [25] = experiment: Upregulation of caspase 8 expression in mouse B16 cells at 9.70 uM measured after 48 hrs by Western blot analysis; format: functional, cell-based; details: dose 9.7 µM
[26] = Toxicity in Kunming mouse assessed as increase in survival rate at 60 mg/kg, IG measured after 27 days relative to control; format: organism-based; details: in vivo, po, time 27 day
[27] = Antiproliferative activity against human Prostate tumor cell line at 25 uM measured after 48 hrs by MTT assay relative to control; format: functional
B16 [28] = experiment: Anti-melanoma activity against mouse B16 cells xenografted in Kunming mouse model assessed as reduction in tumor volume at 60 to 80 mg/kg, IG measured after 11 days relative to control; format: functional; set-up: scale not given: the % may be the effect or the level left; details: dose 60-80 mg/kg, time 11 day
B16 [29] = experiment: Anti-melanoma activity against mouse B16 cells xenografted in Kunming mouse model assessed as suppression of tumor weight at 80 mg/kg, IG measured every two days for 27 days (reference value: 10.61+/-1.05g); format: functional; details: time 27 day
B16 [30] = experiment: Anti-melanoma activity against mouse B16 cells xenografted in Kunming mouse model assessed as increase in bax expression at 40 to 60 mg/kg, IG measured after 27 days by IHC staining based analysis; format: functional, organism-based; details: dose 40-60 mg/kg, time 27.0 day
B16 [31] = experiment: Induction of endoplasmic reticulum (ER) stress in mouse B16 cells assessed as fragmented distribution at 25 uM measured after 24 hrs by confocal microscopy based analysis; format: functional, cell-based
B16 [32] = experiment: Anti-melanoma activity against mouse B16 cells xenografted in Kunming mouse model assessed as increase in caspase 3 expression at 40 to 60 mg/kg, IG measured after 27 days by IHC staining based analysis; format: functional, organism-based; details: dose 40-60 mg/kg, time 27.0 day
B16 [33] = experiment: Anti-melanoma activity against mouse B16 cells xenografted in Kunming mouse model assessed as decrease in bcl-2 level at 40 to 60 mg/kg, IG measured after 27 days by IHC staining based analysis; format: functional, organism-based; details: dose 40-60 mg/kg, time 27.0 day
B16 [34] = experiment: Anti-melanoma activity against mouse B16 cells xenografted in Kunming mouse model assessed as reduction in tumor volume at 40 mg/kg, IG measured after 7 to 27 days; format: functional, organism-based; details: time 7-27 day
B16 [35] = experiment: Induction of endoplasmic reticulum (ER) stress in mouse B16 cells assessed as increase in CHOP expression at 9.70 uM measured after 48 hrs by Western blot analysis; format: functional, cell-based; details: dose 9.7 µM
B16 [36] = experiment: Anti-melanoma activity against mouse B16 cells xenografted in Kunming mouse model assessed as reduction in tumor volume at 40 mg/kg, IG measured after 19 days; format: functional, organism-based; details: time 19.0 day
B16 [37] = experiment: Anti-melanoma activity against mouse B16 cells xenografted in Kunming mouse model assessed as suppression of tumor weight at 40 mg/kg, IG measured every two days for 27 days (reference value: 10.61+/-1.05g); format: functional; details: time 27 day
B16 [38] = experiment: Anti-melanoma activity against mouse B16 cells xenografted in Kunming mouse model assessed as inhibition of tumor weight at 80 mg/kg, IG measured every two days for 27 days relative to control; format: functional; set-up: scale not given: the % may be the effect or the level left; details: time 27 day
B16 [39] = experiment: Anti-melanoma activity against mouse B16 cells xenografted in Kunming mouse model assessed as reduction in tumor volume at 60 to 80 mg/kg, IG measured after 7 to 27 days; format: functional, organism-based; details: dose 60-80 mg/kg, time 7-27 day
B16 [40] = experiment: Induction of apoptosis in mouse B16 cells at 4.85 uM measured after 48 hrs by annexin-V/PI double staining based flow cytometry analysis; format: functional, cell-based
B16 [41] = experiment: Induction of endoplasmic reticulum (ER) stress in mouse B16 cells assessed as appearance of damaged ER at 9.70 uM measured after 24 hrs by confocal microscopy based analysis; format: functional, cell-based; details: dose 9.7 µM
[42] = Toxicity in Kunming mouse assessed as effect on body weight at 40 mg/kg, IG measured after 21 days; format: organism-based; details: in vivo, po, 504 h, time 21 day
B16 [43] = experiment: Anti-melanoma activity against mouse B16 cells xenografted in Kunming mouse model assessed as inhibition of tumor weight at 40 mg/kg, IG measured every two days for 27 days relative to control; format: functional; set-up: scale not given: the % may be the effect or the level left; details: time 27 day
B16 [44] = experiment: Anti-melanoma activity against mouse B16 cells xenografted in Kunming mouse model assessed as increase in caspase 8 expression at 40 to 60 mg/kg, IG measured after 27 days by IHC staining based analysis; format: functional, organism-based; details: dose 40-60 mg/kg, time 27.0 day
B16 [45] = experiment: Anti-melanoma activity against mouse B16 cells xenografted in Kunming mouse model assessed as reduction in tumor volume at 40 to 80 mg/kg, IG measured after 5 days; format: functional, organism-based; details: dose 40-80 mg/kg, time 5.0 day
B16 [46] = experiment: Induction of endoplasmic reticulum (ER) stress in mouse B16 cells assessed as appearance of vacuolated ER at 9.70 uM measured after 24 hrs by confocal microscopy based analysis; format: functional, cell-based; details: dose 9.7 µM
[47] = Toxicity in Kunming mouse assessed as increase in survival rate at 80 mg/kg, IG measured after 27 days relative to control; format: organism-based; details: in vivo, po, time 27 day
B16 [48] = experiment: Induction of endoplasmic reticulum (ER) stress in mouse B16 cells assessed as increase in […] expression at 9.70 uM measured after 48 hrs by Western blot analysis; format: functional, cell-based; details: dose 9.7 µM
[49] = Toxicity in Kunming mouse assessed as effect on body weight at 80 mg/kg, IG measured after 21 days; format: organism-based; details: in vivo, po, 504 h, time 21 day

## CC(=O)O[C@H]1CC[C@@]2(C)C(=CC[C@@H]3[C@@H]2CC[C@]2(C)C(c4cccnc4)=CC[C@@H]32)C1 [ABIRATERONE ACETATE]
B16 [1]
  Activity: Active
[2]
  inhibition at 9.7 µM: 61%
B16 [3]
  Activity: inactive
B16 [4]
  Activity: Active
B16 [5]
  IC50: 28.7 µM
[6]
  Activity: 9%
B16 [7]
  Activity: Active
B16 [8]
  Activity: 76.42%
PC-3
  Activity: Active
B16 [9]
  Activity: 2.5 g
[10]
  inhibition at 9.7 µM: 51%
B16 [11]
  Activity: Active
B16 [12]
  Activity: inactive
B16 [13]
  Activity: Active
B16 [14]
  Activity: Active
B16 [15]
  Activity: Active
[16]
  Tmax: 4 h
B16 [17]
  Activity: inactive
B16 [18]
  Activity: Active
[19]
  Activity: Toxic
[20]
  Activity: 49.8%
DU-145
  Activity: Active
B16 [21]
  Activity: inactive
B16 [22]
  Activity: inactive
[23]
  inhibition at 9.7 µM: 64%
[24]
  Cmax: 681 ng/mL
B16 [25]
  Activity: Active

## CC(C)[C@H](NC(=O)CN)C(=O)O[C@H]1CC[C@@]2(C)C(=CC[C@@H]3[C@@H]2CC[C@]2(C)C(c4cccnc4)=CC[C@@H]32)C1
[26]
  survival at 648 h: 100%
B16 [1]
  Activity: Active
[27]
  Activity: 13.6%
[2]
  inhibition at 9.7 µM: ~65%
B16 [28]
  Activity: 100%
B16 [29]
  Activity: 0.23 g
B16 [5]
  IC50: 9.7 µM
B16 [30]
  Activity: Active
B16 [31]
  Activity: Active
B16 [32]
  Activity: Active
B16 [33]
  Activity: Active
B16 [34]
  Activity: inactive
B16 [35]
  Activity: Active
B16 [36]
  Activity: Active
B16 [37]
  Activity: 1.7 g
B16 [38]
  Activity: 99.06%
B16 [8]
  Activity: 98.12%
B16 [39]
  Activity: Active
B16 [9]
  Activity: 0.1 g
B16 [40]
  Activity: Active
[10]
  inhibition at 9.7 µM: 70%
B16 [13]
  Activity: Active
B16 [41]
  Activity: Active
[16]
  Tmax: 8 h
[42]
  Activity: Toxic
B16 [43]
  Activity: 83.96%
B16 [17]
  Activity: Active
B16 [18]
  Activity: Active
[19]
  Activity: Non-Toxic
B16 [44]
  Activity: Active
B16 [45]
  Activity: Active
B16 [46]
  Activity: Active
[47]
  survival at 648 h: 100%
B16 [48]
  Activity: Active
[49]
  Activity: Non-Toxic
[23]
  inhibition at 9.7 µM: 66%
[24]
  Cmax: 55.8 ng/mL
B16 [25]
  Activity: Active

Reference: ChEMBL document CHEMBL5500331, “Discovery of novel peptide-dehydroepiandrosterone hybrids inducing endoplasmic reticulum stress with effective in vitro and in vivo anti-melanoma activities” (Eur J Med Chem, 2024)
